Reference: patent US20240343734A1, “NOVEL SMALL MOLECULE INHIBITORS OF PUS7 AND USES THEREOF” (City of Hope, priority 2021, published 2024)

Tested on: GSCs
Assay: GSC growth (several lines, stated for GSCs in general)
Assay type: cell-based, human
Details: 0.5, 1, 2, 4, 8 μM
Method: GSCs were derived from newly diagnosed grade IV GBM patients. GSCs and NSCs were maintained in spheres in DMEM-F12 medium supplemented with 2 mM L-glutamine, 27.4 mM HEPES, B27, 20 ng ml^−1 EGF, 20 ng ml^−1 FGF and 5 μg ml^−1 heparin as described (Cui, Q., et al., supra). Established GBM cells were maintained in DMEM medium supplemented with 2 mM L-glutamine and 10% FBS. All cultures were mycoplasma-free as confirmed using MycoAlert PLUS Mycoplasma Detection Kit (Lonza). GSCs or NSCs were treated with PUS7 inhibitors at indicated concentration for 72 h. GSCs were treated with IFNα at indicated doses for 6 days.
GSC growth, sphere formation and limiting dilution assays were performed as described 9 Cui, Q., et al., supra). For growth, GSCs were seeded at 5×10^4 cells per well in 24-well plates and cultured for 7 days. Cell growth was monitored by cell counting using a hemocytometer. For sphere formation, GSCs were seeded at 1 cell per well in 96-well plates or 100 cells per well in 48-well plates and cultured for 2 weeks. Spheres were counted under microscope. For limiting dilution assay, GSCs were seeded into 96-well plates at 1, 5, 10, 20, 50 and 100 cells per well. The number of sphere-forming wells was recorded in two weeks. The limiting dilution analysis was performed using the extreme limiting dilution analysis software at http://bioinf.wehi.edu.au/software/elda.

For NC(=O)c1[nH]nc([C@@H]2O[C@H](CO)[C@@H](O)[C@H]2O)c1O [pyrazofurin], the “dose effect on the growth of PBT003 and PBT707 GSCs (significance)” value (FIG. 17B) was “p<0.0001 for 0.5, 1, 2, 4, and 8 μM conditions” and the “dose effect on the growth of PBT0030, NSC005, and NSC010 (significance)” value (FIG. 17C) was “p<0.0001 for 0.5, 1, 2, 4, and 8 μM conditions for PBT030 only”.
